For data set [1] the following is noted: patients; personal communication (Heidi Camp, Pfizer Inc); cited from earlier work.
A further data set has as its system 3T3-L1 cells. Nature of the data set: Gene profile of 3T3-L1 cells treated with Rosiglitazone after PPARγ1 antisense knockdown. The format is cell-based, murine. The following applies: antisense 72 hours. As to the method:
3T3-L1 cells were treated for 72 hours with an antisense construct whose nucleic acid sequence was complementary to PPARγ1 and treated with Rosiglitazone. As a separate control, 3T3-L1 were cells treated with the antisense construct, but without Rosiglitazone. Gene expression levels were determined using Affymetix microarray analysis. Following the incubation, RNA was extracted from the cells using Trizol (Invitrogen) followed by cleanup using an RNeasy kit (Qiagen) including DNase I treatment. Probes from each of these cell populations were prepared by reverse transcription-polymerase chain reaction (RT-PCR) and subsequently biotin labeled by in vitro transcription using the BioArray High Yield RNA Transcript Labeling Kit (Enzo). The probes were then hybridized to U74Aver2 Affymetrix gene chips. The hybridization was conducted as follows The hybridization was for 16 hours at 45° C. and 60 RPM in a rotisserie box.

Each structure is given as a SMILES string.

As to `Cc1oc(-c2ccccc2)nc1CCOc1ccc(C[C@H](Nc2ccccc2C(=O)c2ccccc2)C(=O)O)cc1` [Farglitazar], the “incidence of edema clinically” value in data set [1] is “most frequent incidence of edema clinically”.
As to `CN(CCOc1ccc(CC2SC(=O)NC2=O)cc1)c1ccccn1` (centres unmarked) [Rosiglitazone], in the data set with 3T3-L1 cells, the “genes of Tables I and II also up- or down-regulated by Rosiglitazone in cells treated with PPARγ1 antisense nucleic acid” value is given as 91%.

The values are drawn from patent US20040235019A1, “Diagnostics and therapeutics for the gene expression signature of PPAR-gamma receptor ligand” (Agouron Pharmaceuticals, Inc., priority 2003, published 2004).
